How the values were obtained:
Assay type in all cases: physicochemical
[1] = Absorption and fluorescence spectroscopy of mCy5.5-PEG and dCy5.5-PEG in solvents of different polarities (Example 1); conditions: for λem, position of the emission maximum: excitation 630 nm, 20° C.; for Difference in QY between organic solvents and water (turn-on response): QY in organic solvents vs water; for Fluorescence maxima: in organic solvents
Text: All fluorescence spectra were corrected for instrumental effects. […] To confirm the formation of the intramolecular dimer, the absorption spectra of two dyes were compared. […] This new band can be assigned to the non-fluorescent intramolecular dimer of the H-aggregate type, which is highly favored in aqueous medium. […] As a consequence, dCy5.5-PEG presented excellent fluorogenic properties, with up to 140-fold higher QY in organic solvents than in water. […] As the absorption spectrum of dCy5.5-PEG in the open form (in MeOH) is the same as that of the cyanine 2, the extinction coefficient of the dimer should be ca double of the monomer. The extinction coefficient for the cyanine 2, was measured to be 222 000 M^−1 cm^−1 in MeOH, which allows estimation of the extinction coefficient for the dimer dCy5.5-PEG: 222 000 M^−1 cm^−1×2=444 000 M^−1 cm^−1. Then, given its strong QY (56% in DMF), dCy5.5-PEG appears to be one of the brightest fluorogenic NIR dyes reported to date.

[2] = Absorption and fluorescence spectroscopy, DY647 dimers (Examples 2 and 3); conditions: for λem, position of the emission maximum: excitation 600 nm; for Fluorescence turn-on: ratio of quantum yields in EtOH to that in water (200 nM), DY647 dimers
Method: Absorption spectra were recorded on a Shimadzu UV-2700i spectrophotometer and fluorescence spectra on a Horiba Fluoromax 4 spectrofluorometer. Fluorescence emission spectra were systematically recorded at 600 nm excitation wavelength at 20° C. All fluorescence spectra were corrected for instrumental effects. Fluorescence quantum yields (QY) were measured using DID in MeOH as a reference (QY=33%).^[ref] Turn-ON were calculated as a ratio of QY of compounds in EtOH to QY in water. • Ref I. Texier, et al., J. Biomed. Opt. 2009, 14, 054005.

[3] = Absorption and fluorescence spectroscopy, Cy5.5 dimers (Examples 2 and 3); conditions: for λem, position of the emission maximum: excitation 630 nm
Method: (§1) Absorption spectra were recorded on a Shimadzu UV-2700i spectrophotometer and fluorescence spectra on a Horiba Fluoromax 4 spectrofluorometer. Fluorescence emission spectra were systematically recorded at 630 nm excitation wavelength at 20° C. All fluorescence spectra were corrected for instrumental effects. Fluorescence quantum yields (QY) were measured using Rhodamine 800 in EtOH as a reference (QY=25%).^[ref] Turn-ON were calculated as a ratio of OY of compounds in EtOH to OY in water. • Ref A. Alessi, M. Salvalaggio, G. Ruzzon, J. Lumin. 2013, 134, 385-389. DY647 Dimers
as §1, with “QY” for “OY”

COCCOCCOCCOCCOCCOCCOCCOCC[N+]1=C(/C=C/C=C/C=C2/N(CCCCCC(=O)O)c3ccc4ccccc4c3C2(C)C)C(C)(C)c2c1ccc1ccccc21.[I-] [cyanine 2, 2-((1E,3E,5E)-5-(3-(5-carboxypentyl)-1,1-dimethyl-1,3-dihydro-2H-benzo[e]indol-2-ylidene)penta-1,3-dien-1-yl)-1,1-dimethyl-3-(2,5,8,11,14,17,20,23-octaoxapentacosan-25-yl)-1H-benzo[e]indol-3-ium iodide]
Extinction coefficient ([1]; in MeOH): 222 000 M^−1 cm^−1

C#CCNC(=O)CCNC(=O)CCC(=O)NCCOCCOCCNC(=O)CCC(=O)NCCOCCOCCNC(=O)[C@H](CCCCNC(=O)CCC(=O)NCCOCCOCCNC(=O)CCCCCN1/C(=C/C=C/C=C/C2=[N+](CCOCCOCCOCCOCCOCCOCCOCCOC)c3ccc4ccccc4c3C2(C)C)C(C)(C)c2c1ccc1ccccc21)NC(=O)CCC(=O)NCCOCCOCCNC(=O)CCCCCN1/C(=C/C=C/C=C/C2=[N+](CCOCCOCCOCCOCCOCCOCCOCCOC)c3ccc4ccccc4c3C2(C)C)C(C)(C)c2c1ccc1ccccc21.O=C([O-])C(F)(F)F.O=C([O-])C(F)(F)F [dCy5.5-PEG]
QY, fluorescence quantum yield ([1]; 1,4-Dioxane): 28% | λabs, position of the absorption maximum ([1]; 1,4-Dioxane): 689 nm | λem, position of the emission maximum ([1]; 1,4-Dioxane): 718 nm | QY, fluorescence quantum yield ([1]; DMF): 56% | λabs, position of the absorption maximum ([1]; DMF): 685 nm | λem, position of the emission maximum ([1]; DMF): 709 nm | QY, fluorescence quantum yield ([1]; EtOH): 26% | λabs, position of the absorption maximum ([1]; EtOH): 686 nm | λem, position of the emission maximum ([1]; EtOH): 710 nm | QY, fluorescence quantum yield ([1]; MeOH): 26% | λabs, position of the absorption maximum ([1]; MeOH): 682 nm | λem, position of the emission maximum ([1]; MeOH): 705 nm | Difference in QY between organic solvents and water (turn-on response) [1]: up to 140 fold | QY, fluorescence quantum yield ([1]; Water): 0.4% | λabs, position of the absorption maximum ([1]; Water): 629 nm | λem, position of the emission maximum ([1]; Water): 700 nm | Fluorescence maxima [1]: around 710 nm | Extinction coefficient, estimation for the dimer ([1]; open form (in MeOH), double of cyanine 2): 444 000 M^−1 cm^−1

COCC[N+]1=C(/C=C/C=C/C=C2/N(CCCCCC(=O)NCCCC[C@H](NC(=O)CCCCCN3/C(=C/C=C/C=C/C4=[N+](CCOC)c5ccc(S(=O)(=O)O)cc5C4(C)C)C(C)(C)c4cc(S(=O)(=O)[O-])ccc43)C(=O)NCCOCCOCCNC(=O)CCC(=O)NCCOCCOCCNC(=O)CCC(=O)OC(C)(C)C)c3ccc(S(=O)(=O)[O-])cc3C2(C)C)C(C)(C)c2cc(S(=O)(=O)O)ccc21 [A]
QY, fluorescence quantum yield ([2]; Acetone): 3.4% | λabs, position of the absorption maximum ([2]; Acetone): 661 nm | λem, position of the emission maximum ([2]; Acetone): 684 nm | QY, fluorescence quantum yield ([2]; Acetonitrile): 19.8% | λabs, position of the absorption maximum ([2]; Acetonitrile): 656 nm | λem, position of the emission maximum ([2]; Acetonitrile): 678 nm | QY, fluorescence quantum yield ([2]; EtOH): 31.1% | λabs, position of the absorption maximum ([2]; EtOH): 654 nm | λem, position of the emission maximum ([2]; EtOH): 676 nm | QY, fluorescence quantum yield ([2]; H2O): 4.1% | λabs, position of the absorption maximum ([2]; H2O): 647 nm | λem, position of the emission maximum ([2]; H2O): 671 nm | QY, fluorescence quantum yield ([2]; MeOH): 28.2% | λabs, position of the absorption maximum ([2]; MeOH): 651 nm | λem, position of the emission maximum ([2]; MeOH): 673 nm | Fluorescence turn-on [2]: 7.6

C#CCNC(=O)CCNC(=O)CCC(=O)NCCOCCOCCNC(=O)CCC(=O)NCCOCCOCCNC(=O)CCC(=O)NCCOCCOCCNC(=O)CCCCCN1/C(=C/C=C/C=C/C2=[N+](CCOCCOCCOCCOCCOCCOCCOCCOC)c3ccc4ccccc4c3C2(C)C)C(C)(C)c2c1ccc1ccccc21.O=C([O-])C(F)(F)F [mCy5.5-PEG]
QY, fluorescence quantum yield ([1]; 1,4-Dioxane): 59% | λabs, position of the absorption maximum ([1]; 1,4-Dioxane): 689 nm | λem, position of the emission maximum ([1]; 1,4-Dioxane): 712 nm | QY, fluorescence quantum yield ([1]; DMF): 50% | λabs, position of the absorption maximum ([1]; DMF): 686 nm | λem, position of the emission maximum ([1]; DMF): 709 nm | QY, fluorescence quantum yield ([1]; EtOH): 34% | λabs, position of the absorption maximum ([1]; EtOH): 686 nm | λem, position of the emission maximum ([1]; EtOH): 709 nm | QY, fluorescence quantum yield ([1]; MeOH): 32% | λabs, position of the absorption maximum ([1]; MeOH): 681 nm | λem, position of the emission maximum ([1]; MeOH): 705 nm | Difference in QY between organic solvents and water (turn-on response) [1]: < 2.7 fold | QY, fluorescence quantum yield ([1]; Water): 22% | λabs, position of the absorption maximum ([1]; Water): 679 nm | λem, position of the emission maximum ([1]; Water): 700 nm | Fluorescence maxima [1]: around 710 nm | Absorption maxima ([1]; in water and in MeOH): around 680 nm

COCCOCCOCCOCCOCCOCCOCCOCC[N+]1=C(/C=C/C=C/C=C2/N(CCCCCC(=O)NCCOCCOCCNC(=O)CCC(=O)NCCCC[C@H](NC(=O)CCC(=O)NCCOCCOCCNC(=O)CCCCCN3/C(=C/C=C/C=C/C4=[N+](CCOCCOCCOCCOCCOCCOCCOCCOC)c5ccc6ccccc6c5C4(C)C)C(C)(C)c4c3ccc3ccccc43)C(=O)NCCOCCOCCNC(=O)CCC(=O)NCCOCCOCCNC(=O)CCC(=O)OC(C)(C)C)c3ccc4ccccc4c3C2(C)C)C(C)(C)c2c1ccc1ccccc21 [Compound 5]
QY, fluorescence quantum yield ([3]; Acetone): 25.0% | λabs, position of the absorption maximum ([3]; Acetone): 683 nm | λem, position of the emission maximum ([3]; Acetone): 708 nm | QY, fluorescence quantum yield ([3]; Acetonitrile): 22.7% | λabs, position of the absorption maximum ([3]; Acetonitrile): 681 nm | λem, position of the emission maximum ([3]; Acetonitrile): 703 nm | QY, fluorescence quantum yield ([3]; EtOH): 26.5% | λabs, position of the absorption maximum ([3]; EtOH): 685 nm | λem, position of the emission maximum ([3]; EtOH): 708 nm | QY, fluorescence quantum yield ([3]; H2O): 0.4% | λabs, position of the absorption maximum ([3]; H2O): 630 nm | λem, position of the emission maximum ([3]; H2O): 708 nm | QY, fluorescence quantum yield ([3]; MeOH): 21.1% | λabs, position of the absorption maximum ([3]; MeOH): 682 nm | λem, position of the emission maximum ([3]; MeOH): 708 nm | Fluorescence turn-on ([3]; ratio of quantum yields in EtOH to that in water (200 nM), Cy5.5 dimers): 66

COCC[N+]1=C(/C=C/C=C/C=C2/N(CCCCCC(=O)NCCOCCOCCNC(=O)CCC(=O)NCCCC[C@H](NC(=O)CCC(=O)NCCOCCOCCNC(=O)CCCCCN3/C(=C/C=C/C=C/C4=[N+](CCOC)c5ccc(S(=O)(=O)O)cc5C4(C)C)C(C)(C)c4cc(S(=O)(=O)[O-])ccc43)C(=O)NCCOCCOCCNC(=O)CCC(=O)NCCOCCOCCNC(=O)CCC(=O)OC(C)(C)C)c3ccc(S(=O)(=O)[O-])cc3C2(C)C)C(C)(C)c2cc(S(=O)(=O)O)ccc21 [B]
QY, fluorescence quantum yield ([2]; Acetone): 0.4% | λabs, position of the absorption maximum ([2]; Acetone): 660 nm | λem, position of the emission maximum ([2]; Acetone): 683 nm | QY, fluorescence quantum yield ([2]; Acetonitrile): 6.6% | λabs, position of the absorption maximum ([2]; Acetonitrile): 658 nm | λem, position of the emission maximum ([2]; Acetonitrile): 677 nm | QY, fluorescence quantum yield ([2]; EtOH): 35.1% | λabs, position of the absorption maximum ([2]; EtOH): 653 nm | λem, position of the emission maximum ([2]; EtOH): 673 nm | QY, fluorescence quantum yield ([2]; H2O): 7.6% | λabs, position of the absorption maximum ([2]; H2O): 648 nm | λem, position of the emission maximum ([2]; H2O): 666 nm | QY, fluorescence quantum yield ([2]; MeOH): 33.0% | λabs, position of the absorption maximum ([2]; MeOH): 650 nm | λem, position of the emission maximum ([2]; MeOH): 673 nm | Fluorescence turn-on [2]: 4.6
